Here are results for 2 compounds from ChEMBL document CHEMBL1122843, “Opioid receptor interactions and conformations of the 6 alpha and 6 beta epimers of oxymorphamine. Solid-state conformation of 6 alpha-oxymorphamine” (J Med Chem, 1985).

The target in test [1] is Delta-type opioid receptor (Rattus norvegicus, UniProt P33533). Briefly: Compound was evaluated for binding affinity against Opioid receptor delta 1 in rat brain membranes using [125I]-D-Ala2-Leu5-enkephalin. Type of test: cell membranes. To be noted: read-out: I50.
Another test deals with Mu-type opioid receptor (Rattus norvegicus, UniProt P33535). Briefly: Compound was evaluated for binding affinity against Opioid receptor mu 1 in rat brain membranes using [125I]-Tyr-D-Ala-Gly-NMePhe-Met. In kind it is cell membranes. To be noted: read-out: I50.
Chain of Mu-type opioid receptor (P33535 whole entry): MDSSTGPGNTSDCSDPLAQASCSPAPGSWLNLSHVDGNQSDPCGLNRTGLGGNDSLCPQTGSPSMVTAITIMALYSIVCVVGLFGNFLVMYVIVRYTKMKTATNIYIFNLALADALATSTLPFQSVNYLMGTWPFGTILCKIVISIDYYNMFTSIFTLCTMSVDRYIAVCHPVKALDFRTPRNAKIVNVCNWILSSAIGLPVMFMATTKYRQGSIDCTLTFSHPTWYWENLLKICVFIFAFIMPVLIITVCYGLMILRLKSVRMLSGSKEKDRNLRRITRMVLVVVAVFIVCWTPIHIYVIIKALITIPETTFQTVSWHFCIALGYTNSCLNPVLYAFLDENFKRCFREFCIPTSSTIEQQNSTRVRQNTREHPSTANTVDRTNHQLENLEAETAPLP

Chain of Delta-type opioid receptor (P33533 whole entry): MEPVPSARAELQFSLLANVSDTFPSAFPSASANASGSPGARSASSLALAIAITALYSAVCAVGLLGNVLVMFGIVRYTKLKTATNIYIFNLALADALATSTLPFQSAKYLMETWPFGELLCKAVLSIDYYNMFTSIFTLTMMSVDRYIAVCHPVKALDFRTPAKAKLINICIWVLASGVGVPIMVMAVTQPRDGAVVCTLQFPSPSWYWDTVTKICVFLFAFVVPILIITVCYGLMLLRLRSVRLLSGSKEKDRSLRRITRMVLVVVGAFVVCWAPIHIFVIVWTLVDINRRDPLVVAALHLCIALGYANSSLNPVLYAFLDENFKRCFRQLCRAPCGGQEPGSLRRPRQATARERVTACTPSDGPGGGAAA

`CN1CC[C@]23c4c5ccc(O)c4O[C@H]2[C@@H](N)CC[C@@]3(O)[C@H]1C5`: the IC50 in test [1] was 250 nM; on Mu-type opioid receptor it was 13 nM.

In the case of `CN1CC[C@]23c4c5ccc(O)c4O[C@H]2[C@H](N)CC[C@@]3(O)[C@H]1C5`, the IC50 in test [1] came out at 110 nM; on Mu-type opioid receptor, 9 nM.
